Like-named read-outs stand apart in the source and are kept apart here.
Assays:
AB1054 OXA-23 = experiment: Meropenem potentiation (MPC@8), strain AB1054 OXA-23; assay type: cell-based, Acinetobacter baumannii; details: minimum BLI concentration inhibiting growth with meropenem 8 μg/mL; tested up to 20 μg/mL
KP1004 KPC-2 [1] = experiment: Aztreonam potentiation (MPC@4), strain KP1004 KPC-2; details: minimum BLI concentration inhibiting growth with aztreonam 4 μg/mL; tested up to 40 μg/mL
ec308 SHV-5 = experiment: Aztreonam potentiation (MPC@4), strain ec308 SHV-5; details: minimum BLI concentration inhibiting growth with aztreonam 4 μg/mL; tested up to 40 μg/mL
KP1005 CTX-M-14 = experiment: Tigemonam potentiation (MPC@4), strain KP1005 CTX-M-14; details: minimum BLI concentration inhibiting growth with tigemonam 4 μg/mL; tested up to 40 μg/mL
AB1053 OXA-72 = experiment: Meropenem potentiation (MPC@8), strain AB1053 OXA-72; assay type: cell-based, Acinetobacter baumannii; details: minimum BLI concentration inhibiting growth with meropenem 8 μg/mL; tested up to 20 μg/mL
KP1004 KPC-2 [2] = experiment: Biapenem potentiation (MPC@1), strain KP1004 KPC-2; assay type: cell-based; details: minimum BLI concentration inhibiting growth with biapenem 1 μg/mL; tested up to 40 μg/mL
Procedure: (§1) Biapenem was present in the test medium at 1 μg/mL. […] Table 3 summarizes the BLI potency of biapenem potentiation (MPC@1) for two strains overexpressing class A (KPC) and class D (OXA-48) carbapenemases. Biapenem MIC for each strain is also shown.

ECL1002 = experiment: Aztreonam potentiation (MPC@4), strain ECL1002; details: minimum BLI concentration inhibiting growth with aztreonam 4 μg/mL; tested up to 40 μg/mL
[3] = target: purified class A, C and D enzymes (β-lactamases) (Klebsiella pneumoniae, UniProt Q6XEC0); experiment: biochemical; assay type: biochemical; details: purified OXA-48; nitrocefin (NCF) as reporter substrate
[4] = target: purified class A, C and D enzymes (β-lactamases) (Escherichia coli, UniProt Q9L5C7); experiment: biochemical; assay type: biochemical; details: purified CTX-M-14; nitrocefin (NCF) as reporter substrate
[5] = target: purified class A, C and D enzymes (β-lactamases) (Klebsiella pneumoniae, UniProt Q9F663); experiment: biochemical; assay type: biochemical; details: purified KPC-2; nitrocefin (NCF) as reporter substrate
[6] = target: T1, purified class A, C and D enzymes (β-lactamases) (Pseudomonas aeruginosa, UniProt P24735); experiment: biochemical; assay type: biochemical
T1 construct: rows headed: Ki (Pa-AmpC, NCF), uM; other: purified Pa-AmpC; nitrocefin (NCF) as reporter substrate

[7] = target: purified class A, C and D enzymes (β-lactamases) (Enterobacter cloacae, UniProt P05364); experiment: biochemical; assay type: biochemical
[8] = target: T2, purified class A, C and D enzymes (β-lactamases) (Acinetobacter baumannii, UniProt Q9L4P2); experiment: biochemical; assay type: biochemical; details: purified OXA-23; nitrocefin (NCF) as reporter substrate
T2 construct: rows headed: Ki (OXA-23, NCF), uM; other: purified OXA-23; nitrocefin (NCF) as reporter substrate

EC1010 CMY-6 = experiment: Aztreonam potentiation (MPC@4), strain EC1010 CMY-6; details: minimum BLI concentration inhibiting growth with aztreonam 4 μg/mL; tested up to 40 μg/mL
KP1009 CTX-M-15 = experiment: Aztreonam potentiation (MPC@4), strain KP1009 CTX-M-15; details: minimum BLI concentration inhibiting growth with aztreonam 4 μg/mL; tested up to 40 μg/mL
KP1010 SHV-12 = experiment: Aztreonam potentiation (MPC@4), strain KP1010 SHV-12; details: minimum BLI concentration inhibiting growth with aztreonam 4 μg/mL; tested up to 40 μg/mL
KP1086 OXA-48 = experiment: Biapenem potentiation (MPC@1), strain KP1086 OXA-48; assay type: cell-based; details: minimum BLI concentration inhibiting growth with biapenem 1 μg/mL; tested up to 40 μg/mL
Procedure: as §1

ec302 TEM-10 = experiment: Aztreonam potentiation (MPC@4), strain ec302 TEM-10; details: minimum BLI concentration inhibiting growth with aztreonam 4 μg/mL; tested up to 40 μg/mL

T1 sequence (P24735 whole entry): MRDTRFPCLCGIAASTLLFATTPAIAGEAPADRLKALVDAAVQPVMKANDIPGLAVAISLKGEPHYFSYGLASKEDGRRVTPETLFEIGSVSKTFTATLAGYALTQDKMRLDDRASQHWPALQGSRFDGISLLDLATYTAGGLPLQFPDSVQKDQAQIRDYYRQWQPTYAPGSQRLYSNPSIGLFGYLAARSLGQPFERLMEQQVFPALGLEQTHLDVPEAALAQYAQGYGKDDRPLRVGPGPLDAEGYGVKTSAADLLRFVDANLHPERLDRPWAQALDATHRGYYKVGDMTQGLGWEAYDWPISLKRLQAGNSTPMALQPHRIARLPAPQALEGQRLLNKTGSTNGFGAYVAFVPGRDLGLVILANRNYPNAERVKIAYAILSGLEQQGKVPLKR
Sequence of purified class A, C and D enzymes (β-lactamases) (Escherichia coli, UniProt Q9L5C7) (Q9L5C7 entry or part of it): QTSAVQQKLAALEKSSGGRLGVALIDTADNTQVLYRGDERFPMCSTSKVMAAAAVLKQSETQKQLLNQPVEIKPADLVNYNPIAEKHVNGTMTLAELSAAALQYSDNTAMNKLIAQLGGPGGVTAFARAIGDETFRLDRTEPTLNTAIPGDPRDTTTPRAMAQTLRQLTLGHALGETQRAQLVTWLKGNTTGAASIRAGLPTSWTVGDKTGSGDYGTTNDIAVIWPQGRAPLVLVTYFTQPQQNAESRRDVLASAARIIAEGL
Sequence of purified class A, C and D enzymes (β-lactamases) (Enterobacter cloacae, UniProt P05364) (P05364 21-381): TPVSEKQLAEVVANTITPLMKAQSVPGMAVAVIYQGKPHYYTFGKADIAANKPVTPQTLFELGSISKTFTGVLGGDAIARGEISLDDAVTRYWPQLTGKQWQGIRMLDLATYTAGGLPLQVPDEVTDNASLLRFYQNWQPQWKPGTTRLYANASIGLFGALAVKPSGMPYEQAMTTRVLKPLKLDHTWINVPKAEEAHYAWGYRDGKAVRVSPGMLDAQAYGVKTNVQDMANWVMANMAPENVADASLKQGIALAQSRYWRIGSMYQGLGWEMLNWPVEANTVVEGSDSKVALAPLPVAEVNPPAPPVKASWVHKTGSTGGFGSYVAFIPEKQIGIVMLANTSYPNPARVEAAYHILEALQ
T2 sequence (Q9L4P2 whole entry): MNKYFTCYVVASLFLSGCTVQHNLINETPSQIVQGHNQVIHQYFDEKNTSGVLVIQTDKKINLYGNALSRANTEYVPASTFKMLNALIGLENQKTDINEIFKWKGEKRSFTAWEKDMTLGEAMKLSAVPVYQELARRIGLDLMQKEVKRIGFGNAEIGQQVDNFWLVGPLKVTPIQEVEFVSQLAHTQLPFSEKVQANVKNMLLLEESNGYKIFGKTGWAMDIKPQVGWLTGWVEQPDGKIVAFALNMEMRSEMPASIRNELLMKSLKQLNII

SMILES: COc1c(F)cc2c(c1C(=O)O)OB(O)CC2 [Compound 34, 6-Fluoro-2-hydroxy-7-methoxy-3,4-dihydro-1,2-benzoxaborinine-8-carboxylic acid]
- MPM MPC8 AB1054 OXA-23 (AB1054 OXA-23): X (X = MPC@1 ≤ 5 μg/mL)
- AZT MPC4 KPC-2 KP1004 (KP1004 KPC-2 [1]): X (X = MPC@4 ≤ 5 μg/mL)
- AZT MPC4 SHV-5 ec308 (ec308 SHV-5): X (X = MPC@4 ≤ 5 μg/mL)
- TIG MPC4 CTX-M-14 KP1005 (KP1005 CTX-M-14): Z (Z = MPC@4 > 20 μg/mL)
- MPM MPC8 AB1053 OXA-72 (AB1053 OXA-72): X (X = MPC@1 ≤ 5 μg/mL)
- BPM MPC1 KP1004 KPC-2 (KP1004 KPC-2 [2]): X (X = MPC@1 ≤ 5 μg/mL)
- AZT MPC4 ECL1002 (ECL1002): X (X = MPC@4 ≤ 5 μg/mL)
- Ki (OXA-48, NCF), uM [3]: X (X = Ki ≤ 0.1 μM)
- Ki (CTX-M-14, NCF), uM [4]: X (X = Ki ≤ 0.1 μM)
- Ki (KPC-2, NCF), uM [5]: X (X = Ki ≤ 0.1 μM)
- Ki ([6]; purified Pa-AmpC, nitrocefin (NCF) as reporter substrate, read-out: Ki (Pa-AmpC, NCF)): < 100 nM
- Ki (P99, NCF), uM ([7]; purified P99, nitrocefin (NCF) as reporter substrate): X (X = Ki ≤ 0.1 μM)
- Ki [8]: < 100 nM
- AZT MPC4 CMY-6 EC1010 (EC1010 CMY-6): X (X = MPC@4 ≤ 5 μg/mL)
- AZT MPC4 CTX-M-15 KP1009 (KP1009 CTX-M-15): X (X = MPC@4 ≤ 5 μg/mL)
- AZT MPC4 SHV-12 KP1010 (KP1010 SHV-12): X (X = MPC@4 ≤ 5 μg/mL)
- BPM MPC1 OXA-48 KP1086 (KP1086 OXA-48): X (X = MPC@1 ≤ 5 μg/mL)
- AZT MPC4 TEM-10 ec302 (ec302 TEM-10): X (X = MPC@4 ≤ 5 μg/mL)

SMILES: NCCCSCc1ccc2c(c1C(=O)[O-])O[B-](O)(O)CC2.[Na+].[Na+] [Compound 21, Disodium; 8-(3-aminopropylsulfanylmethyl)-4,4-dihydroxy-5-oxa-4-boranuidabicyclo[4.4.0]deca-1(6),7,9-triene-7-carboxylate]
- MPM MPC8 AB1054 OXA-23 (AB1054 OXA-23): X (X = MPC@1 ≤ 5 μg/mL)
- AZT MPC4 KPC-2 KP1004 (KP1004 KPC-2 [1]): X (X = MPC@4 ≤ 5 μg/mL)
- AZT MPC4 SHV-5 ec308 (ec308 SHV-5): Y (Y = 5 μg/mL < MPC@4 ≤ 20 μg/mL)
- TIG MPC4 CTX-M-14 KP1005 (KP1005 CTX-M-14): Z (Z = MPC@4 > 20 μg/mL)
- MPM MPC8 AB1053 OXA-72 (AB1053 OXA-72): X (X = MPC@1 ≤ 5 μg/mL)
- BPM MPC1 KP1004 KPC-2 (KP1004 KPC-2 [2]): X (X = MPC@1 ≤ 5 μg/mL)
- AZT MPC4 ECL1002 (ECL1002): Y (Y = 5 μg/mL < MPC@4 ≤ 20 μg/mL)
- Ki (OXA-48, NCF), uM [3]: X (X = Ki ≤ 0.1 μM)
- Ki (CTX-M-14, NCF), uM [4]: X (X = Ki ≤ 0.1 μM)
- Ki (KPC-2, NCF), uM [5]: X (X = Ki ≤ 0.1 μM)
- Ki [6]: < 100 nM
- Ki (P99, NCF), uM [7]: X (key: X = Ki ≤ 0.1 μM; Y = 0.1 μM < Ki ≤ 1 μM; Z = Ki > 1 μM)
- Ki [8]: < 100 nM
- AZT MPC4 CMY-6 EC1010 (EC1010 CMY-6): X (X = MPC@4 ≤ 5 μg/mL)
- AZT MPC4 CTX-M-15 KP1009 (KP1009 CTX-M-15): Y (Y = 5 μg/mL < MPC@4 ≤ 20 μg/mL)
- AZT MPC4 SHV-12 KP1010 (KP1010 SHV-12): X (X = MPC@4 ≤ 5 μg/mL)
- BPM MPC1 OXA-48 KP1086 (KP1086 OXA-48): X (X = MPC@1 ≤ 5 μg/mL)
- AZT MPC4 TEM-10 ec302 (ec302 TEM-10): Y (Y = 5 μg/mL < MPC@4 ≤ 20 μg/mL)

SMILES: NS(=O)(=O)Nc1ccc2c(c1C(=O)[O-])O[B-](O)(O)CC2.[Na+].[Na+] [Compound 52, Disodium; 4,4-dihydroxy-8-(sulfamoylamino)-5-oxa-4-boranuidabicyclo[4.4.0]deca-1(6),7,9-triene-7-carboxylate]
- MPM MPC8 AB1054 OXA-23 (AB1054 OXA-23): Z (Z = MPC@1 > 20 μg/mL)
- AZT MPC4 KPC-2 KP1004 (KP1004 KPC-2 [1]): X (X = MPC@4 ≤ 5 μg/mL)
- AZT MPC4 SHV-5 ec308 (ec308 SHV-5): Y (Y = 5 μg/mL < MPC@4 ≤ 20 μg/mL)
- TIG MPC4 CTX-M-14 KP1005 (KP1005 CTX-M-14): Z (Z = MPC@4 > 20 μg/mL)
- MPM MPC8 AB1053 OXA-72 (AB1053 OXA-72): Z (Z = MPC@1 > 20 μg/mL)
- BPM MPC1 KP1004 KPC-2 (KP1004 KPC-2 [2]): X (X = MPC@1 ≤ 5 μg/mL)
- AZT MPC4 ECL1002 (ECL1002): X (X = MPC@4 ≤ 5 μg/mL)
- Ki (OXA-48, NCF), uM [3]: X (X = Ki ≤ 0.1 μM)
- Ki (CTX-M-14, NCF), uM [4]: X (X = Ki ≤ 0.1 μM)
- Ki (KPC-2, NCF), uM [5]: X (X = Ki ≤ 0.1 μM)
- Ki [6]: < 100 nM
- Ki (P99, NCF), uM [7]: X (key: X = Ki ≤ 0.1 μM; Y = 0.1 μM < Ki ≤ 1 μM; Z = Ki > 1 μM)
- Ki [8]: 100 to 1000 nM
- AZT MPC4 CMY-6 EC1010 (EC1010 CMY-6): X (X = MPC@4 ≤ 5 μg/mL)
- AZT MPC4 CTX-M-15 KP1009 (KP1009 CTX-M-15): Y (Y = 5 μg/mL < MPC@4 ≤ 20 μg/mL)
- AZT MPC4 SHV-12 KP1010 (KP1010 SHV-12): X (X = MPC@4 ≤ 5 μg/mL)
- BPM MPC1 OXA-48 KP1086 (KP1086 OXA-48): X (X = MPC@1 ≤ 5 μg/mL)
- AZT MPC4 TEM-10 ec302 (ec302 TEM-10): Y (Y = 5 μg/mL < MPC@4 ≤ 20 μg/mL)

— patent US10618918B2, “Substituted boronic acids as antimicrobials” (priority 2015, dated 2020)
